Results published in patent US7829585B2, “Antifungal agent containing pyridine derivative” (Eisai R&D Management Co., Ltd., priority 2005, dated 2010).
≈ marks a conversion by molar mass, not a printed value.

How the values were obtained:
[1] = tested on: C. albicans E81022 strain; experiment: Anti-Candida activity, MIC measurement (broth dilution, visual inspection); format: cell-based; conditions: Candida albicans, E81022STRAIN, C. albicans E81022, RPMI1640, 48 hours at 35° C., read-out: Anti-Candida activity (minimum growth inhibitory concentration, MIC)
Experimental: (§1) For the C. albicans E81022 strain, a fungal suspension from a standing culture 48 hours at 30° C. in a Sabouraud dextrose liquid culture medium (SDB) was diluted 10000-fold with 1.3-times concentrated RPMI1640 medium to prepare a fungal suspension containing 1 to 2×10^4 cells/ml. For the A. fumigatus Tsukuba strain, −80° C. stored strain was diluted 1000-fold with 1.3-times concentrated RPMI1640 medium to prepare a fungal suspension containing 2 to 3×10^3 cells/ml.
(§2) Using a U-shaped bottomed 96-well plates, 8 samples/plate (A to H) of sample dilution solutions were prepared. On the first row was dispensed 240 μl of sterile distilled water, and on the 2nd to 12th row were dispersed 125 μL of 4% dimethylsulfoxide solution. Weighed sample was dissolved in dimethylsulfoxide to prepare a 5 mg/ml solution followed by adding 10 μL of the solutions to the first row of the prepared plates and preparing 12-step serial 2-fold dilutions (125 μL of solution+125 μL of 4% dimethylsulfoxide solution) on the plates.
(§3) The fungal suspension prepared in (1) was used in the amount of 75 μL/well to inoculate the flat-bottomed 96-well plates containing 25 μL/well of the test compound prepared in (2), and a standing culture was carried out aerobically for 48 hours at 35° C.

[2] = tested on: C. albicans E81022 strain; experiment: Experimental systemic Candida infection model in mice; format: in vivo; conditions: female ICR mice, C. albicans E81022 i.v. 4×10^6 cells/mouse; 10 mg/kg peroral, three times every 4 hours; observed until 14 days after infection
Experimental: A standing culture of C. albicans E81022 strain was static cultured for 48 hours at 30° C. in Sabouraud's dextrose agar (SDA), and the recovered fungal cells were suspended in sterilized physiological saline. By counting the fungal number on cytometry plate, the suspension was diluted to 2×10^7 cells/mL with sterilized saline to serve fungal inoculant.
The fungal inoculum was used in the amounts of 0.2 mL to inoculate 4.5 to 5.5 week-old femal ICR mice in the tail vein (4×10^6 cells/mouse).
From 0.5 to 1 hour after fungal inoculation, 0.2 mL of agent solution (dissolved or suspended in sterilized saline containing 6.5% dimethylsulfoxide and 3.5% Tween 80) was administered into the stomach using a peroral probe, three times every 4 hours. The agent concentration was set at 10 mg/kg and the number of animals in one group was 5 animals.
The protective effect was determined by observing life/death until 14 days after infection and calculating the mean survival days.

[3] = tested on: A. fumigatus Tsukuba strain; experiment: Anti-Aspergillus activity, MIC measurement (broth dilution, visual inspection); format: cell-based; conditions: RPMI1640, 48 hours at 35° C., read-out: Anti-Aspergillus activity (minimum growth inhibitory concentration, MIC)
Experimental: as §1, §2, §3

| MIC [1] | MIC [3] | Structure (SMILES) | Mean Survival Days [2] |
| --- | --- | --- | --- |
| 0.1 µg/mL (≈ 0.268 µM) | 1.56 µg/mL (≈ 4.18 µM) | Nc1ncccc1C(=O)NCc1cc2ccc(OCc3ccccc3)cc2o1 [Example 58, 2-Amino-N-(6-benzyloxy-benzofuran-2-ylmethyl)-nicotinamide] |  |
| 0.39 µg/mL (≈ 0.967 µM) | 6.25 µg/mL (≈ 15.5 µM) | COCc1ccc(C(=O)NCc2cc3ccc(Oc4ccccc4)cc3o2)c(N)n1 [Example 49, 2-Amino-6-methoxymethyl-N-(6-phenoxy-benzofuran-2-ylmethyl)-nicotinamide] |  |
| 0.39 µg/mL (≈ 1.02 µM) | 0.78 µg/mL (≈ 2.04 µM) | CC=CCOc1ccc2cc(CNC(=O)c3ccc(COC)nc3N)oc2c1 [Example 38, 2-Amino-N-(6-but-2-enyloxy-benzofuran-2-ylmethyl)-6-methoxymethyl-nicotinamide] |  |
| 0.39 µg/mL (≈ 0.96 µM) | 1.56 µg/mL (≈ 3.84 µM) | Nc1ccc(C(=O)NCc2cc3ccc(OCc4cccc(F)c4)cc3o2)c(N)n1 [Example 22, 2,6-Diamino-N-(6-(3-fluoro-benzyloxy)-benzofuran-2-ylmethyl)-nicotinamide] |  |
| 6.25 µg/mL (≈ 17 µM) | 1.56 µg/mL (≈ 4.25 µM) | CCCCc1ccc2oc(CNC(=O)c3ccc(COC)nc3N)cc2c1 [Example 57, 2-Amino-N-(5-butyl-benzofuran-2-ylmethyl)-6-methoxymethyl-nicotinamide] |  |
| 3.13 µg/mL (≈ 8.5 µM) | 6.25 µg/mL (≈ 17 µM) | CC(C)(C)COc1ccc2cc(CNC(=O)c3ccc(N)nc3N)oc2c1 [Example 16, 2,6-Diamino-N-(6-(2,2-dimethyl-propoxy)-benzofuran-2-ylmethyl)-nicotinamide] |  |
| 0.39 µg/mL (≈ 0.964 µM) | 1.56 µg/mL (≈ 3.86 µM) | Nc1ccc(C(=O)NCc2cc3ccc(OCc4ccccc4)cc3s2)c(N)n1 [Example 78, 2,6-Diamino-N-(6-benzyloxy-benzo[b]thiohen-2-ylmethyl)-nicotinamide] |  |
| 1.56 µg/mL (≈ 4.25 µM) | 0.39 µg/mL (≈ 1.06 µM) | C=CCOc1ccc2oc(CNC(=O)c3ccc(COC)nc3N)cc2c1 [Example 54, N-(5-Allyloxy-benzofuran-2-ylmethyl)-2-amino-6-methoxymethyl-nicotinamide] |  |
| 1.56 µg/mL (≈ 4.61 µM) | 0.78 µg/mL (≈ 2.31 µM) | C=CCOc1ccc2oc(CNC(=O)c3ccc(N)nc3N)cc2c1 [Example 52, N-(5-Allyloxy-benzofuran-2-ylmethyl)-2,6-diamino-nicotinamide] |  |
| 0.78 µg/mL (≈ 2.43 µM) | 1.56 µg/mL (≈ 4.85 µM) | C#CCOc1ccc2cc(CNC(=O)c3cccnc3N)oc2c1 [Example 70, 2-Amino-N-(6-prop-2-ynyloxy-benzofuran-2-ylmethyl)-nicotinamide] |  |

Further lines, the compound ahead of its results:

| Structure (SMILES) | MIC [1] | MIC [3] | Mean Survival Days [2] |
| --- | --- | --- | --- |
| COCc1ccc(C(=O)NCc2cc3cc(OCc4ccccc4)ccc3o2)c(N)n1 [Example 7, 2-Amino-N-(5-benzyloxy-benzofuran-2-ylmethyl)-6-methoxymethyl-nicotinamide] | 0.39 µg/mL (≈ 0.934 µM) | 1.56 µg/mL (≈ 3.74 µM) | 8.8 days |
| C=CCOc1ccc2cc(CNC(=O)c3ccc(COC)nc3N)oc2c1 [Example 5, N-(6-Allyloxy-benzofuran-2-ylmethyl)-2-amino-6-methoxymethyl-nicotinamide] | 0.78 µg/mL (≈ 2.12 µM) | 0.78 µg/mL (≈ 2.12 µM) | 12.8 days |
| Nc1ccc(C(=O)NCc2cc3ccc(OCC4CC4)cc3o2)c(N)n1 [Example 3, 2,6-Diamino-N-(6-cyclopropylmethoxy-benzofuran-2-ylmethyl)-nicotinamide] | 1.56 µg/mL (≈ 4.43 µM) | 0.78 µg/mL (≈ 2.21 µM) | 8.6 days |
| COCc1ccc(C(=O)NCc2cc3ccc(OCC4CC4)cc3o2)c(N)n1 [Example 6, 2-Amino-N-(6-cyclopropylmethoxy-benzofuran-2-ylmethyl)-6-methoxymethyl-nicotinamide] | 0.78 µg/mL (≈ 2.04 µM) | 1.56 µg/mL (≈ 4.09 µM) | 11.4 days |
| COCc1ccc(C(=O)NCc2cc3ccc(OCc4ccccc4)cc3o2)c(N)n1 [Example 4, 2-Amino-N-(6-benzyloxy-benzofuran-2-ylmethyl)-6-methoxymethyl-nicotinamide] | 0.78 µg/mL (≈ 1.87 µM) | 3.13 µg/mL (≈ 7.5 µM) | 10.2 days |
| Nc1ccc(C(=O)NCc2cc3ccc(OCc4ccccc4)cc3o2)c(N)n1 [Example 1, 2,6-Diamino-N-(6-benzyloxy-benzofuran-2-ylmethyl)-nicotinamide] | 0.39 µg/mL (≈ 1 µM) | 1.56 µg/mL (≈ 4.02 µM) | 9.6 days |
| CCOc1ccc2cc(CNC(=O)c3ccc(N)nc3N)oc2c1 [Example 2, 2,6-Diamino-N-(6-ethoxy-benzofuran-2-ylmethyl)-nicotinamide] | 1.56 µg/mL (≈ 4.78 µM) | 3.13 µg/mL (≈ 9.59 µM) | 8.6 days |
| C=CCOc1ccc2cc(CNC(=O)c3ccc(N)nc3N)oc2c1 [Example 9, N-(6-Allyloxy-benzofuran-2-ylmethyl)-2,6-diamino-nicotinamide] |  |  | 9.6 days |
